Source: ChEMBL document CHEMBL1275533, “In vitro antibacterial activity of vertilmicin and its susceptibility to modifications by the recombinant AAC6'-APH2'' enzyme” (2008)
Activity calls are given as the source filed them. The calls are words filed in the database; no cut-off is given here.

Legend:
Staphylococcus aureus [1] = assay: Antibacterial activity against non-gentamicin-resistant Staphylococcus aureus clinical isolate assessed as susceptible isolates after 18 hrs by agar dilution method; format: functional
Pseudomonas aeruginosa [2] = assay: Antibacterial activity against gentamicin-resistant Pseudomonas aeruginosa clinical isolate after 18 hrs by agar dilution method; format: functional
Pseudomonas sp. [3] = assay: Antibacterial activity against gentamicin-resistant Pseudomonas spp. clinical isolate after 18 hrs by agar dilution method; format: functional
Escherichia coli [4] = assay: Antibacterial activity against gentamicin-resistant Escherichia coli clinical isolate after 18 hrs by agar dilution method; format: functional
Pseudomonas aeruginosa [5] = assay: Antibacterial activity against non-gentamicin-resistant Pseudomonas aeruginosa clinical isolate assessed as susceptible isolates after 18 hrs by agar dilution method; format: functional
Pseudomonas aeruginosa [6] = assay: Antibacterial activity against non-gentamicin-resistant Pseudomonas aeruginosa clinical isolate after 18 hrs by agar dilution method; format: functional
Serratia marcescens = assay: Antibacterial activity against non-gentamicin-resistant Serratia marcescens clinical isolate assessed as susceptible isolates after 18 hrs by agar dilution method; format: functional
[7] = system: Haemophilus parainfluenzae; assay: Antibacterial activity against non-gentamicin-resistant Haemophilus parainfluenzae clinical isolate after 18 hrs by agar dilution method; format: functional
Escherichia coli [8] = assay: Antibacterial activity against non-gentamicin-resistant Escherichia coli clinical isolate assessed as susceptible isolates after 18 hrs by agar dilution method; format: functional
Staphylococcus aureus [9] = assay: Antibacterial activity against gentamicin-resistant Staphylococcus aureus clinical isolate assessed as susceptible isolates after 18 hrs by agar dilution method; format: functional
Klebsiella pneumoniae [10] = assay: Antibacterial activity against gentamicin-resistant Klebsiella pneumoniae clinical isolate assessed as susceptible isolates after 18 hrs by agar dilution method; format: functional
Staphylococcus aureus [11] = assay: Antibacterial activity against non-gentamicin-resistant Staphylococcus aureus clinical isolate after 18 hrs by agar dilution method; format: functional
Morganella morganii [12] = assay: Antibacterial activity against non-gentamicin-resistant Morganella morganii clinical isolate after 18 hrs by agar dilution method; format: functional
Enterobacter cloacae [13] = assay: Antibacterial activity against gentamicin-resistant Enterobacter cloacae clinical isolate after 18 hrs by agar dilution method; format: functional
[14] = system: Staphylococcus epidermidis; assay: Antibacterial activity against gentamicin-resistant Staphylococcus epidermidis clinical isolate assessed as susceptible isolates after 18 hrs by agar dilution method; format: functional
Proteus mirabilis [15] = assay: Antibacterial activity against non-gentamicin-resistant Proteus mirabilis clinical isolate assessed as susceptible isolates after 18 hrs by agar dilution method; format: functional
[16] = system: Staphylococcus epidermidis; assay: Antibacterial activity against non-gentamicin-resistant Staphylococcus epidermidis clinical isolate after 18 hrs by agar dilution method; format: functional
Citrobacter koseri [17] = assay: Antibacterial activity against non-gentamicin-resistant Citrobacter diversus clinical isolate assessed as susceptible isolates after 18 hrs by agar dilution method; format: functional
Enterococcus faecalis [18] = assay: Antibacterial activity against gentamicin-resistant Enterococcus faecalis clinical isolate after 18 hrs by agar dilution method; format: functional
Staphylococcus aureus [19] = assay: Antibacterial activity against gentamicin-resistant Staphylococcus aureus clinical isolate after 18 hrs by agar dilution method; format: functional
Klebsiella aerogenes [20] = assay: Antibacterial activity against gentamicin-resistant Enterobacter aerogenes clinical isolate after 18 hrs by agar dilution method; format: functional
Citrobacter koseri [21] = assay: Antibacterial activity against gentamicin-resistant Citrobacter diversus clinical isolate after 18 hrs by agar dilution method; format: functional
Providencia rettgeri [22] = assay: Antibacterial activity against gentamicin-resistant Proteus rettgeri clinical isolate after 18 hrs by agar dilution method; format: functional
Klebsiella pneumoniae [23] = assay: Antibacterial activity against gentamicin-resistant Klebsiella pneumoniae clinical isolate after 18 hrs by agar dilution method; format: functional
Klebsiella pneumoniae [24] = assay: Antibacterial activity against non-gentamicin-resistant Klebsiella pneumoniae clinical isolate assessed as susceptible isolates after 18 hrs by agar dilution method; format: functional
Enterobacter cloacae [25] = assay: Antibacterial activity against non-gentamicin-resistant Enterobacter cloacae clinical isolate after 18 hrs by agar dilution method; format: functional
Pseudomonas aeruginosa [26] = assay: Antibacterial activity against gentamicin-resistant Pseudomonas aeruginosa clinical isolate assessed as susceptible isolates after 18 hrs by agar dilution method; format: functional
Citrobacter koseri [27] = assay: Antibacterial activity against gentamicin-resistant Citrobacter diversus clinical isolate assessed as susceptible isolates after 18 hrs by agar dilution method; format: functional
Providencia rettgeri [28] = assay: Antibacterial activity against non-gentamicin-resistant Proteus rettgeri clinical isolate after 18 hrs by agar dilution method; format: functional
Providencia rettgeri [29] = assay: Antibacterial activity against non-gentamicin-resistant Proteus rettgeri clinical isolate assessed as susceptible isolates after 18 hrs by agar dilution method; format: functional
Pseudomonas sp. [30] = assay: Antibacterial activity against non-gentamicin-resistant Pseudomonas spp. clinical isolate after 18 hrs by agar dilution method; format: functional
Haemophilus influenzae = assay: Antibacterial activity against non-gentamicin-resistant Haemophilus influenzae clinical isolate assessed as susceptible isolates after 18 hrs by agar dilution method; format: functional, organism-based
Citrobacter freundii = assay: Antibacterial activity against non-gentamicin-resistant Citrobacter freundii clinical isolate after 18 hrs by agar dilution method; format: functional
Enterococcus faecalis [31] = assay: Antibacterial activity against gentamicin-resistant Enterococcus faecalis clinical isolate assessed as susceptible isolates after 18 hrs by agar dilution method; format: functional, organism-based
Proteus mirabilis [32] = assay: Antibacterial activity against non-gentamicin-resistant Proteus mirabilis clinical isolate after 18 hrs by agar dilution method; format: functional
Klebsiella pneumoniae [33] = assay: Antibacterial activity against non-gentamicin-resistant Klebsiella pneumoniae clinical isolate after 18 hrs by agar dilution method; format: functional
[34] = system: Staphylococcus epidermidis; assay: Antibacterial activity against non-gentamicin-resistant Staphylococcus epidermidis clinical isolate assessed as susceptible isolates after 18 hrs by agar dilution method; format: functional
Enterobacter cloacae [35] = assay: Antibacterial activity against non-gentamicin-resistant Enterobacter cloacae clinical isolate assessed as susceptible isolates after 18 hrs by agar dilution method; format: functional
[36] = system: Acinetobacter calcoaceticus; assay: Antibacterial activity against non-gentamicin-resistant Acinetobacter calcoaceticus clinical isolate assessed as susceptible isolates after 18 hrs by agar dilution method; format: functional
Providencia rettgeri [37] = assay: Antibacterial activity against gentamicin-resistant Proteus rettgeri clinical isolate assessed as susceptible isolates after 18 hrs by agar dilution method; format: functional
Klebsiella aerogenes [38] = assay: Antibacterial activity against non-gentamicin-resistant Enterobacter aerogenes clinical isolate after 18 hrs by agar dilution method; format: functional
Morganella morganii [39] = assay: Antibacterial activity against gentamicin-resistant Morganella morganii clinical isolate assessed as susceptible isolates after 18 hrs by agar dilution method; format: functional
Klebsiella aerogenes [40] = assay: Antibacterial activity against non-gentamicin-resistant Enterobacter aerogenes clinical isolate assessed as susceptible isolates after 18 hrs by agar dilution method; format: functional
[41] = system: Acinetobacter calcoaceticus; assay: Antibacterial activity against gentamicin-resistant Acinetobacter calcoaceticus clinical isolate after 18 hrs by agar dilution method; format: functional
Morganella morganii [42] = assay: Antibacterial activity against gentamicin-resistant Morganella morganii clinical isolate after 18 hrs by agar dilution method; format: functional

For GENTAMICIN, the Activity (Staphylococcus aureus [1]) was 85.7%, the MIC50 (Pseudomonas aeruginosa [2]) was greater than 128 µg/mL and the MIC90 (Pseudomonas aeruginosa [2]) was greater than 128 µg/mL. The MIC50 (Pseudomonas sp. [3]) was 128 µg/mL, the MIC90 (Pseudomonas sp. [3]) was greater than 128 µg/mL and the MIC50 (Escherichia coli [4]) was 64 µg/mL. For the same sequence, the MIC90 (Escherichia coli [4]) was greater than 128 µg/mL, the Activity (Pseudomonas aeruginosa [5]) was 65.6% and the MIC50 (Pseudomonas aeruginosa [6]) was 4 µg/mL. It also gave an MIC90 (Pseudomonas aeruginosa [6]) of 8 µg/mL, an Activity (Serratia marcescens) of 100% and an MIC50 [7] of 2 µg/mL. It also gave an MIC90 [7] of 4 µg/mL, an Activity (Escherichia coli [8]) of 100% and an Activity (Staphylococcus aureus [9]) of 0%. It also gave an Activity (Klebsiella pneumoniae [10]) of 0%, an MIC50 (Staphylococcus aureus [11]) of 0.125 µg/mL and an MIC90 (Staphylococcus aureus [11]) of 8 µg/mL. For the same sequence, the MIC90 (Morganella morganii [12]) was 8 µg/mL, the MIC50 (Enterobacter cloacae [13]) was greater than 128 µg/mL and the MIC90 (Enterobacter cloacae [13]) was greater than 128 µg/mL. It also gave an Activity [14] of 0%, an Activity (Proteus mirabilis [15]) of 96.8% and an MIC50 [16] of 0.06 µg/mL. The MIC90 [16] was 4 µg/mL, the Activity (Citrobacter koseri [17]) was 100% and the MIC50 (Enterococcus faecalis [18]) was greater than 128 µg/mL. The MIC90 (Enterococcus faecalis [18]) was greater than 128 µg/mL, the MIC50 (Staphylococcus aureus [19]) was 32 µg/mL and the MIC90 (Staphylococcus aureus [19]) was 128 µg/mL. For the same sequence, the MIC50 (Klebsiella aerogenes [20]) was greater than 128 µg/mL, the MIC90 (Klebsiella aerogenes [20]) was greater than 128 µg/mL and the MIC50 (Citrobacter koseri [21]) was greater than 128 µg/mL. The MIC90 (Citrobacter koseri [21]) was greater than 128 µg/mL, the MIC50 (Providencia rettgeri [22]) was 64 µg/mL and the MIC90 (Providencia rettgeri [22]) was 128 µg/mL. For the same sequence, the MIC50 (Klebsiella pneumoniae [23]) was 128 µg/mL, the MIC90 (Klebsiella pneumoniae [23]) was greater than 128 µg/mL and the Activity (Klebsiella pneumoniae [24]) was 100%. The MIC50 (Enterobacter cloacae [25]) was 0.25 µg/mL, the MIC90 (Enterobacter cloacae [25]) was 0.5 µg/mL and the Activity (Pseudomonas aeruginosa [26]) was 0%. For the same sequence, the Activity (Citrobacter koseri [27]) was 0%, the MIC50 (Providencia rettgeri [28]) was 4 µg/mL and the MIC90 (Providencia rettgeri [28]) was 8 µg/mL. The Activity (Providencia rettgeri [29]) was 84.6%, the MIC50 (Pseudomonas sp. [30]) was 2 µg/mL and the MIC90 (Pseudomonas sp. [30]) was 8 µg/mL. For the same sequence, the Activity (Haemophilus influenzae) was “inactive”, the MIC50 (Citrobacter freundii) was 0.25 µg/mL and the MIC90 (Citrobacter freundii) was 1 µg/mL. For the same sequence, the Activity (Enterococcus faecalis [31]) was “inactive”, the MIC50 (Proteus mirabilis [32]) was 0.5 µg/mL and the MIC90 (Proteus mirabilis [32]) was 1 µg/mL. For the same sequence, the MIC50 (Klebsiella pneumoniae [33]) was 0.25 µg/mL, the MIC90 (Klebsiella pneumoniae [33]) was 0.5 µg/mL and the Activity [34] was 92.5%. The Activity (Enterobacter cloacae [35]) was 98.2%, the Activity [36] was 98% and the Activity (Providencia rettgeri [37]) was 0%. For the same sequence, the MIC50 (Klebsiella aerogenes [38]) was 0.25 µg/mL, the MIC90 (Klebsiella aerogenes [38]) was 0.5 µg/mL and the Activity (Morganella morganii [39]) was 0%. It also gave an Activity (Klebsiella aerogenes [40]) of 98.1%, an MIC50 [41] greater than 128 µg/mL and an MIC90 [41] greater than 128 µg/mL. It also gave an MIC50 (Morganella morganii [42]) of 128 µg/mL and an MIC90 (Morganella morganii [42]) greater than 128 µg/mL.
